The source of these data is publication PMC7796559, “Connecting the conformational behavior of cyclic octadepsipeptides with their ionophoric property and membrane permeability” (Organic & biomolecular chemistry, 2020).

Like-named read-outs stand apart in the source and are kept apart here. Non-standard residues stand in square brackets, D forms with d. Residues, ends and D or L forms follow the SMILES beside them. dPhLac = O=C(O)[C@H](O)Cc1ccccc1; NMeL = CN[C@@H](CC(C)C)C(=O)O; dLac = C[C@@H](O)C(=O)O

The test system of one series is nematodes. The settings on record: cited from earlier work.
Series [1] is described as follows: Site-to-site exchange rates from EXSY peaks in EASY-ROESY. Format: physicochemical. The settings on record: for kex / k1 / k2: EASY-ROESY, mixing time 100 ms, CDCl3; for k1 / k2: site-to-site exchange rate. Here is the method:
Following ref. [76] and [77], site-to-site rates were determined in a straightforward way by taking the logarithm of matrix A = M × M0^−1 containing the volumes of cross- and diagonal peaks of the exchanging sites (Hα of Mle^2, Mle^6 and Mle^26) divided by their magnetic fraction M0 (i.e. the relative intensities of the corresponding resonances in the ^1H NMR spectrum) as an approximation of M(0): (1) M=e^Ltm×M0 (2) A=(IAA/M0AIAB/M0BIAC/M0CIBA/M0AIBB/M0BIBC/M0CICA/M0AICB/M0BICC/M0C) (3) 1/tmln(A)=(kBA+kCA−R1kABkACkBA−kAB−R10kBC0−kAC−R1)
L is the difference between the kinetic matrix K containing the site-to-site rate constants and the relaxation matrix R, tm is the mixing time used in the ROESY experiment, and Ri are the auto-relaxation rates of the exchanging sites in the symmetric (A) and asymmetric (B, C) conformations.
EXSY peak volumes extracted from the ROESY spectrum (shown schematically in Fig. 13) and the magnetic fractions in the 1H NMR spectrum are inserted in matrix A (eqn 4). Site-to-site rates are obtained by taking the logarithm of matrix A and dividing the result by the mixing time (0.1 s) (eqn 5): kAB = kAC = 0.09 s^−1 and kBA = kCA = 0.16 s^−1 (averaged rates). Calculations were carried out in Mathematica 12.0.[78] (4) A=(77.9/11.52/1.51.55/1.51.59/1236/1.50/1.51.75/10/1.5200/1.5) (5) 1/0.1ln(A)=(43.55240.090.100.1450.580.000.170.0048.9)

Series [2] is described as follows: PAMPA with and without potassium salt. It is filed as in vitro ADME. Conditions: for recovery at 10 μM / Papp at 10 µM / Papp: PAMPA; for PAMPA permeability (in words): independent of the addition of potassium salt. Here is the method: PAMPA was performed using a 96-well filter donor plate with 0.45 μm hydrophobic Immobilon-P membrane supports (Millipore MAIPNTR10) and a 96-well Teflon acceptor plate (Millipore MSSACCEPTOR). The donor plate was prepared by applying 5 μL of 1% (w/v) soybean lecithin (90%, Alfa Aesar) in n-dodecane to each filter. The acceptor plate was prepared by addition of 300 μl of pH = 7.4 phosphate-buffered saline (PBS) with 5% DMSO to each well. Donor solutions composed of PBS with 5% DMSO, 10 μM carbamazepine standard, and 10 μM compound 1, 2 or 8 were prepared with and without additional KCl (0.27 mM or 100.27 mM K^+ concentration) before addition of 150 μl to each donor well, with all conditions run in quadruplicate. The donor plate was then loaded into the acceptor plate and was left in a sealed, damp chamber at 25 °C for approximately 17 hours (exact times recorded and used in calculation of Pe). The plates were then separated, and 100 μl of solution from each well was transferred to another plate for LC-MS analysis. Permeabilities were calculated identically to a previous study.[80]
Background: In PAMPA a lipid-coated filter parts donor from acceptor wells.

A further series concerns efflux transporter P-gp. The arrangement: method as in PMID 25131706. The settings on record: cited from earlier work.
Series [3] in a line: Cation binding in apolar solvent (chloroform) by NMR. Format: physicochemical. Conditions: CDCl3; solid KSCN and sonication (1) or saturated KSCN solution in D2O, phase separation (2). Here is the method: It is known that valinomycin, a cyclic dodecadepsipeptide, as well as some crown ethers can bind cations even in an apolar solvent.[59]–[61] This ability is an indirect evidence that the ion-bound complex may exist inside the membrane interior, i.e. that ion transport across a membrane is possible. To assess if the cyclic octadepsipeptides are also able to bind cations in an apolar solvent, KSCN was added to a solution of 1 in chloroform and sonicated for several hours.

The subject of the next series is Caco-2. The arrangement: method as in PMID 26067057, PMID 32121188. Conditions: cited from earlier work.
Details of series [4]: method as in PMID 26067057. The settings on record: PAMPA; cited from earlier work.
Details of series [5]: method as in PMID 22138252, PMID 24061379. Conditions: cited from earlier work.
Details of series [6]: method as in PMID 22138252, PMID 24061379. Conditions: cited from earlier work. This is another data set of the same source.
The next series has as its system mycobacteria. The arrangement: method as in PMID 5879163. The settings on record: cited from earlier work.
In a further series the test system is ryanodine-binding. Also noted: method as in PMID 20057513. The settings on record: cited from earlier work.
Setting [7] is: pH 7.4, PAMPA, + 100 mM KCl, read-out: Average Recovery Rate.
Setting [8] is: pH 7.4, PAMPA, without additional KCl, read-out: Average Recovery Rate.
Where [9] appears, read: without additional KCl (0.27 mM K+), PBS pH 7.4 with 5% DMSO, 10 μM compound, approx. 17 hours, 25 °C, read-out: Average Permeability with standard deviation in brackets.
Setting [10] is: worked example, mixing time 0.1 s.

As for `CC(C)CC1C(=O)OC(Cc2ccccc2)C(=O)N(C)C(CC(C)C)C(=O)OC(C)C(=O)N(C)C(CC(C)C)C(=O)OC(Cc2ccccc2)C(=O)N(C)C(CC(C)C)C(=O)OC(C)C(=O)N1C` (single isomer, unassigned) [enantiomer of PF1022A], in the series on nematodes, the “Anthelmintic activity (in words)” value is on record as “no anthelmintic activity”.

`CC(C)C[C@H]1C(=O)O[C@H](Cc2ccccc2)C(=O)N(C)[C@@H](CC(C)C)C(=O)O[C@H](C)C(=O)N(C)N(CC(C)C)C(=O)O[C@H](Cc2ccccc2)C(=O)N(C)N(CC(C)C)C(=O)O[C@H](C)C(=O)N1C` [Bis-aza analog (8)]: in [1], the kex was determined as 0.19 s⁻¹, the k1 was found to be 0.17 s⁻¹ and the k2 came out at 0.02 s⁻¹. In the series on nematodes, the “Biological activity weaker by a factor compared to 1” value was 5–10. Moreover, in series [2] (setting [7]), the recovery at 10 μM came out at 6.8%. In addition, the recovery at 10 μM in [2] (setting [8]) amounted to 26.2%. Further, in series [2] (setting [9]), the Papp at 10 µM was 0.08 ×10⁻⁶ cm/s. For the same compound, in [2], the “PAMPA permeability (in words)” value was “no permeability was detected”.

With `NC(=O)N1c2ccccc2C=Cc2ccccc21` [Carbamazepine, carbamazepine, reference compound], the Papp at 10 µM in [2] (pH 7.4, 10 μM standard in donor solutions, with and without 100 mM KCl, read-out: Permeability of PAMPA control) fell in the range of 7.94 to 11.1 ×10⁻⁶ cm/s. Further, the recovery at 10 μM in series [2] (pH 7.4, 10 μM standard in donor solutions, with and without 100 mM KCl, read-out: Recovery rate of PAMPA control) was in the range of 85.4 to 200%.

In [1], `CC(C)C[C@H]1C(=O)O[C@H](Cc2ccc(N3CCOCC3)cc2)C(=O)N(C)[C@@H](CC(C)C)C(=O)O[C@H](C)C(=O)N(C)[C@@H](CC(C)C)C(=O)O[C@H](Cc2ccc(N3CCOCC3)cc2)C(=O)N(C)[C@@H](CC(C)C)C(=O)O[C@H](C)C(=O)N1C` [Emodepside (2), reference compound] gave a kex of 0.18 s⁻¹, a k1 of 0.12 s⁻¹ and a k2 of 0.06 s⁻¹. Besides, the “Anthelmintic activity relative to PF1022A (in words)” value with nematodes is “increased anthelmintic activity”. Also, the “Substrate of the efflux transporter P-gp” value in the series with efflux transporter P-gp is listed as “substrate”. In [3], the “Conformation detected in chloroform after contact with KSCN” value was “the symmetric conformation is present almost exclusively”. The recovery at 10 μM in series [2] (setting [7]) amounted to 27.3%. The recovery at 10 μM in series [2] (setting [8]) stood at 78.7%. In addition, in series [2], the “PAMPA permeability (in words)” value is given as “no permeability was detected”.

For the compound `CC(C)[C@H]1C(=O)O[C@H](C(C)C)C(=O)N(C)[C@@H](C(C)C)C(=O)O[C@H](C(C)C)C(=O)N(C)[C@@H](C(C)C)C(=O)O[C@H](C(C)C)C(=O)N1C` [Enniatin B, enniatin B], the “Permeability in Caco-2 permeability assay” value in the series with Caco-2 was 0.00061 cm/s. Moreover, the “log Pe” value in series [4] is −4.73.

In [1], `CC(C)C[C@H]1C(=O)O[C@H](Cc2ccc(I)cc2)C(=O)N(C)[C@@H](CC(C)C)C(=O)O[C@H](C)C(=O)N(C)[C@@H](CC(C)C)C(=O)O[C@H](Cc2ccccc2)C(=O)N(C)[C@@H](CC(C)C)C(=O)O[C@H](C)C(=O)N1C` [Mono-iodo analog (11)] came in with a kex of 0.26 s⁻¹, a k1 of 0.17 s⁻¹ and a k2 of 0.09 s⁻¹.

In the case of `CC(C)CC1C(=O)OC(Cc2ccccc2)C(=O)N(C)C(CC(C)C)C(=O)OC(C)C(=O)N(C)C(CC(C)C)C(=O)OC(Cc2ccccc2)C(=O)N(C)C(CC(C)C)C(=O)OC(C)C(=O)N1C` (stereo not drawn) [PF1022A (1)], in [1], the kex amounted to 0.25 s⁻¹, the k1 came out at 0.16 s⁻¹ and the k2 was determined as 0.09 s⁻¹. In series [1] (setting [10]), the “kAB = kAC (averaged site-to-site rate)” value is 0.09 s⁻¹ and the “kBA = kCA (averaged site-to-site rate)” value was determined as 0.16 s⁻¹. In series [3], the “Conformation detected in chloroform after contact with KSCN” value was “only the symmetric conformation could be detected”. Moreover, in series [2] (pH 7.4, PAMPA, + 100 mM KCl (100.27 mM K+), PBS pH 7.4 with 5% DMSO, 10 μM compound, approx. 17 hours, 25 °C, read-out: Average Permeability with standard deviation in brackets), the Papp amounted to 0.02 ×10⁻⁶ cm/s. The recovery at 10 μM in series [2] (setting [7]) was determined as 57.4%. For the same compound, in [2] (setting [8]), the recovery at 10 μM turned out to be 18.4%. For the same compound, the Papp in [2] (setting [9]) amounted to 0.06 ×10⁻⁶ cm/s. The “PAMPA permeability (in words)” value in [2] was “no permeability was detected”.

Consider `CC(C)C1OC(=O)C(C(C)C)N(C)C1=O` (stereo not drawn) [compound 3, 3,6-di-(propan-2-yl)-4-methyl-morpholine-2,5-dione], for which, in series [5], the “Antioxidant activity (in words)” value was “moderate”. Besides, in series [6], the “Antimicrobial activity (in words)” value is “moderate”.

For `CC(C)C[C@H]1C(=O)O[C@H](C(C)C)C(=O)N(C)[C@@H](CC(C)C)C(=O)O[C@H](C(C)C)C(=O)N1C` [compound 4, cyclo-(N-methyl L-leucine D-hydroxyisovaleric acid)2], the “Activity against mycobacteria (in words)” value in the series on mycobacteria is given as “no activity”.

On to `CCCCC[C@H]1OC(=O)[C@H](C)N(C)C(=O)[C@@H](CCCCC)OC(=O)[C@H](C)N(C)C(=O)[C@@H](CCCCC)OC(=O)[C@H](C)N(C)C(=O)[C@@H](CCCCC)OC(=O)[C@H](C)N(C)C1=O` [compound 7, verticilide], for which the “Ryanodine binding (in words)” value with ryanodine-binding is recorded as “ryanodine-binding inhibitor”.

`CC(C)C[C@H]1C(=O)O[C@H](Cc2ccccc2)C(=O)N(C)[C@@H](CC(C)C)C(=O)O[C@H](C)C(=O)N(C)[C@@H](CC(C)C)C(=O)N2CCC[C@@H]2C(=O)N2CCC[C@H]2C(=O)O[C@H](C)C(=O)N1C` [compound 9] (cyclo([dLac][NMeL][dPhLac][NMeL][dLac][NMeL][dP]P)): the “Biological activity higher by a factor compared to 1” value in the series with nematodes is recorded as 2.

As to `CC(C)C[C@H]1C(=O)O[C@H](Cc2ccccc2)C(=S)N(C)[C@@H](CC(C)C)C(=O)O[C@H](C)C(=S)N(C)[C@@H](CC(C)C)C(=O)O[C@H](Cc2ccccc2)C(=S)N(C)[C@@H](CC(C)C)C(=O)O[C@H](C)C(=S)N1C` [compound 10], the “Activity increased (times) compared to 1” value with nematodes is 2.5.
